In general, IC50 refers to the midpoint of a concentration-inhibition curve.

The results in this text go back to patent US20250296953A1, “3,4-THIAZOLO-STEROIDS AND METHODS OF MAKING AND USING THE SAME” (Arkansas State University - Jonesboro, priority 2018, published 2025).

Holding throughout (assay): Melanoma cytotoxicity assay (resazurin)
Assay type in all cases: cell-based
(Resazurin is reduced to fluorescent resorufin, in cell work by metabolically active cells.)

One series has as its system MALME-3M. The protocol:
(§1) On day 1, the cell line trypsinized and centrifuged to form cell pellet. The pellet was diluted in media, then counted using Countess automated cell counter. Approximately 4000 cells (198 uL) per well plated in […]. A control well of 200 uL growth media was also prepared. Wells closest to plate perimeter were filled with 200 uL PBS to prevent inner well evaporation. The 96 well plates are incubated in 37° C. incubator at 5% CO2 for 24 hours.
(§2) On day 2, compounds were added (in triplicate) along with DMSO/Dacarbazine controls (2 uL) added to bring wells to volume of 200 μL. The 96 well plates are incubated in 37° C. incubator at 5% CO2 for 24 hours.
(§3) On day 3, 40 μL of 0.15 mg/ml reszurin solution added to wells. Samples were placed in a 37° C. incubator at 5% CO2 for 6 hours. Excitation and emission for fluorescence measured at 544 nm and 590 nm using BMG Labtech Fluostar Optima plate reader
(§4) Percent viability determined by taking average of each triplicate well fluorescence and subtracting GM well reading to remove the background signal. This difference is then divided by the average of the negative control (DMSO) wells to determine percent viability.
(§5) IC50s were determined by using cereal dilution of compound to determine viability. Viabilities and concentration of cells are analyzed in Graphpad Prism by creating sigmoidal curve graph, which will determine the IC50 concentration.
(§6) We analyzed the ability of the thiazole-androstane derivatives to inhibit growth in various melanoma cell lines. The growth inhibition against melanoma cell lines of various compound is shown below in Tables 19 and 20. Inhibition results are reported as the IC50 concentration in μM of the indicated compound or as the percent viability […] of the indicated compound. NA=not available.

Another series deals with SK-MEL-28. The protocol: (§7) Cytotoxicity Assay: Melanoma cells (˜4000 cells in each well) were incubated in a 96 well plates at 37° C. in 5% CO2 for 24 hours. Compounds were added in triplicates and the plate was further incubated for 24 hours. DMSO and dacarbazine were added as technical and positive controls respectively. Next day resazurin was added and the plate was further incubated for 6 hours followed by reading the plate at 544 nm (excitation) and 590 nm (emission) using BMG Labtech Fluostar Optima plate reader. IC50 values were determined by using Graphpad Prism.
as §1, §2, §3, §4, §5, §6

Another series has as its system LOX IMVI. Conditions: for IC50: Homo sapiens. The protocol:
as §7, §1, §2, §3, §4, §5, §6

The test system of another series is SK-MEL-25. The protocol:
as §7, §1, §2, §3, §4, §5, §6

In a further series the test system is SK-MEL-5. The protocol: as §7, §1, §2, §3, §4, §5, §6

As for `CCNc1nc2c(s1)C1=CC[C@H]3[C@@H]4CC[C@H](O)[C@@]4(C)CC[C@@H]3[C@@]1(C)CC2` [IIIa.3, (1S,2R,13R,14S,17S,18S)-7-(ethylamino)-2,18-dimethyl-8-thia-6-azapentacyclo[11.7.0.02,10.05,9.014,18]icosa-5(9),6,10-trien-17-ol], the “MALME-3M (% viability)” value with MALME-3M (human, 24 h) is on record as 51.83%. In addition, the “SK-MEL-28 (% viability)” value in the series with SK-MEL-28 (human, 24 h) is 2.00%. In the series on LOX IMVI (LOX IMVI melanoma cells), this compound displayed an IC50 of more than 20 µM. Also, the “LOX-IMVI (% viability)” value with LOX IMVI (human, 24 h) is on record as 6%. In the series on SK-MEL-25 (human, 24 h), the “SK-MEL-25 (% viability)” value is 5.06%. The “SK-MEL-5 (% viability)” value with SK-MEL-5 (human, 24 h) amounted to 2.46%.

Turning to `C[C@]12CC[C@H]3[C@@H](CC=C4c5sc(Nc6cccc(C(=O)O)c6)nc5CC[C@@]43C)[C@@H]1CC[C@@H]2O` [IIIa.35, 3-[[(1S,2R,13R,14S,17S,18S)-17-hydroxy-2,18-dimethyl-8-thia-6-azapentacyclo[11.7.0.02,10.05,9.014,18]icosa-5(9),6,10-trien-7-yl]amino]benzoic acid], in the series with MALME-3M (human, 24 h), the “MALME-3M (% viability)” value is given as 122.92%. In addition, the “SK-MEL-28 (% viability)” value with SK-MEL-28 (human, 24 h) was found to be 66.69%. The “LOX-IMVI (% viability)” value in the series with LOX IMVI (human, 24 h) worked out at 89%. The “SK-MEL-25 (% viability)” value in the series on SK-MEL-25 (human, 24 h) came to 54.19%. The “SK-MEL-5 (% viability)” value in the series on SK-MEL-5 (human, 24 h) was 106.21%.

In the case of `C[C@]12CC[C@H]3[C@@H](CC=C4c5sc(Nc6cccc(O)c6)nc5CC[C@@]43C)[C@@H]1CC[C@@H]2O` [IIIa.39], the “MALME-3M (% viability)” value in the series with MALME-3M (MALME-3M melanoma cells, percent viability vs DMSO control, 24 hours with compound) is listed as 45.95%. Also, the “SK-MEL-28 (% viability)” value with SK-MEL-28 (SK-MEL-28 melanoma cells, percent viability vs DMSO control, 24 hours with compound) is reported as 3.71%. The “LOX-IMVI (% viability)” value in the series on LOX IMVI (LOX IMVI melanoma cells, percent viability vs DMSO control, 24 hours with compound) was found to be 51%. The “SK-MEL-25 (% viability)” value in the series with SK-MEL-25 (SK-MEL-25 melanoma cells, percent viability vs DMSO control, 24 hours with compound) is recorded as 6.33%. Besides, the “SK-MEL-5 (% viability)” value with SK-MEL-5 (SK-MEL-5 melanoma cells, percent viability vs DMSO control, 24 hours with compound) amounted to 6.75%.

In the case of `C[C@]12CC[C@H]3[C@@H](CC=C4c5sc(Nc6ccccc6[N+](=O)[O-])nc5CC[C@@]43C)[C@@H]1CC[C@@H]2O` [IIIa.16, (1S,2R,13R,14S,17S,18S)-2,18-dimethyl-7-(2-nitroanilino)-8-thia-6-azapentacyclo[11.7.0.02,10.05,9.014,18]icosa-5(9),6,10-trien-17-ol], the “MALME-3M (% viability)” value in the series on MALME-3M (human, 24 h) turned out to be 102.39%. In addition, the “SK-MEL-28 (% viability)” value with SK-MEL-28 (human, 24 h) was 8.47%. Besides, in the series with LOX IMVI (human, 24 h), the “LOX-IMVI (% viability)” value is 67%. Also, in the series on SK-MEL-25 (human, 24 h), the “SK-MEL-25 (% viability)” value came to 26.7%. Moreover, the “SK-MEL-5 (% viability)” value with SK-MEL-5 (human, 24 h) worked out at 10.22%.

Regarding `CCCCNc1nc2c(s1)C1=CC[C@H]3[C@@H]4CC[C@H](O)[C@@]4(C)CC[C@@H]3[C@@]1(C)CC2` [IIIa.4, (1S,2R,13R,14S,17S,18S)-7-(butylamino)-2,18-dimethyl-8-thia-6-azapentacyclo[11.7.0.02,10.05,9.014,18]icosa-5(9),6,10-trien-17-ol], the “MALME-3M (% viability)” value with MALME-3M (human, 24 h) was determined as 4.96%. Besides, the “SK-MEL-28 (% viability)” value in the series on SK-MEL-28 (human, 24 h) is 1.69%. In addition, the half-inhibitory concentration (IC50) in the series with LOX IMVI (LOX IMVI melanoma cells) came out at 7.67 µM; in the series with SK-MEL-25 (Homo sapiens, SK-MEL-25 melanoma cells (head prints SK-25), read-out: SK-25 IC50), 16 µM. In the series with LOX IMVI (human, 24 h), the “LOX-IMVI (% viability)” value is given as 2%. In addition, the “SK-MEL-25 (% viability)” value with SK-MEL-25 (human, 24 h) was 2.63%. For the same compound, the “SK-MEL-5 (% viability)” value with SK-MEL-5 (human, 24 h) is 2.1%.

On to `CNc1nc2c(s1)C1=CC[C@H]3[C@@H]4CC[C@H](O)[C@@]4(C)CC[C@@H]3[C@@]1(C)CC2` [IIIa.2, (1S,2R,13R,14S,17S,18S)-2,18-dimethyl-7-(methylamino)-8-thia-6-azapentacyclo[11.7.0.02,10.05,9.014,18]icosa-5(9),6,10-trien-17-ol], for which the “MALME-3M (% viability)” value in the series with MALME-3M (human, 24 h) came out at 59.51%. Moreover, the “SK-MEL-28 (% viability)” value in the series with SK-MEL-28 (human, 24 h) was found to be 1.9%. Further, the “LOX-IMVI (% viability)” value in the series on LOX IMVI (human, 24 h) was 14%. For the same compound, in the series with SK-MEL-25 (human, 24 h), the “SK-MEL-25 (% viability)” value amounted to 6.21%. Further, the “SK-MEL-5 (% viability)” value with SK-MEL-5 (human, 24 h) is 2.02%.

In the case of `C=CCNc1nc2c(s1)C1=CC[C@H]3[C@@H]4CC[C@H](O)[C@@]4(C)CC[C@@H]3[C@@]1(C)CC2` [IIIa.6, (1S,2R,13R,14S,17S,18S)-7-(allylamino)-2,18-dimethyl-8-thia-6-azapentacyclo[11.7.0.02,10.05,9.014,18]icosa-5(9),6,10-trien-17-ol], in the series on MALME-3M (human, 24 h), the “MALME-3M (% viability)” value was found to be 29.73%. The “SK-MEL-28 (% viability)” value with SK-MEL-28 (human, 24 h) is given as 2.04%. In addition, the IC50 with LOX IMVI (LOX IMVI melanoma cells) is more than 20 µM. Also, the “LOX-IMVI (% viability)” value with LOX IMVI (human, 24 h) came out at 11%. The “SK-MEL-25 (% viability)” value with SK-MEL-25 (human, 24 h) came out at 3.79%. Further, in the series on SK-MEL-5 (human, 24 h), the “SK-MEL-5 (% viability)” value is reported as 3.52%.

Consider `C[C@]12CC[C@H]3[C@@H](CC=C4c5sc(Nc6ccc(C(=O)O)cc6)nc5CC[C@@]43C)[C@@H]1CC[C@@H]2O` [IIIa.26, 4-[[(1S,2R,13R,14S,17S,18S)-17-hydroxy-2,18-dimethyl-8-thia-6-azapentacyclo[11.7.0.02,10.05,9.014,18]icosa-5(9),6,10-trien-7-yl]amino]benzoic acid], for which the “MALME-3M (% viability)” value in the series on MALME-3M (human, 24 h) is 113.38%. The “SK-MEL-28 (% viability)” value with SK-MEL-28 (human, 24 h) was 69.56%. Moreover, the “LOX-IMVI (% viability)” value in the series with LOX IMVI (human, 24 h) stood at 79%. Further, the “SK-MEL-25 (% viability)” value in the series with SK-MEL-25 (human, 24 h) was 37.03%. For the same compound, in the series with SK-MEL-5 (human, 24 h), the “SK-MEL-5 (% viability)” value was determined as 93.06%.
